# Experimental data from patent US20040082667A1, “Hangover treatment” (priority 2002, published 2004).
# Key:
# alcohol induced hangover = assay: focus group: treating an alcohol induced hangover; assay type: in vivo, human; details: eight subjects (four male, four female); approximately 0.06 ounces powder in approximately 8 ounces of water or juice, oral, morning after an average of 9.5 alcoholic drinks; self-reported by each subject
# Description: Each subject consumed an average of 9.5 alcoholic drinks in an average time period of 4.1 hours over the course of one evening. Each subject reported that they experienced the effects of an alcohol induced hangover the following morning. Upon rising, the subjects each ingested approximately 0.06 ounces of methylsulfonylmethane powder which had been mixed with approximately 8 ounces of water or juice. Each subject attested to the fact the effects of their alcohol induced hangover were relieved within less than one hour after ingesting the methylsulfonylmethane compound.
# [1] = fraction of the toxicity of common table salt; general statement, no test described; cited from earlier work
smiles,measurement,setting,value
CS(C)(=O)=O [methylsulfonylmethane],time until effects of alcohol induced hangover were relieved after ingesting,alcohol induced hangover,less than one
same,toxicity level relative to common table salt,[1],1/7
